In test [1] the target is Gal-1. The settings on record: for Gal-1; cited from earlier work.
In test [2] the target is Gal-3. The settings on record: for Gal-3; cited from earlier work.
Test [3] has as its target Gal-3 (Homo sapiens, UniProt P17931). Put plainly: competitive inhibition of Gal-3 binding to immobilized asialofetuin. The settings on record: negative control.

We go through four molecules from PMC5909177 (Bioconjugate Chemistry, 2018).

Chain of Gal-3 (Homo sapiens, UniProt P17931) (P17931 whole entry): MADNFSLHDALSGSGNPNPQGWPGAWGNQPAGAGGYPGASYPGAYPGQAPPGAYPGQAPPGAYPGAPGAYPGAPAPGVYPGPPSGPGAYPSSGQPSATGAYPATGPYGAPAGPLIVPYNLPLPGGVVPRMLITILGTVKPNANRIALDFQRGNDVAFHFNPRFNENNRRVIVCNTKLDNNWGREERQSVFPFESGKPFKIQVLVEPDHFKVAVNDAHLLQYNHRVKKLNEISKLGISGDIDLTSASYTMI

Take `OC[C@H]1O[C@@H](S[C@@H]2O[C@H](CO)[C@H](O)[C@H](O)[C@H]2O)[C@H](O)[C@@H](O)[C@H]1O` [TDG, thiodigalactoside]: the Kd in test [1] was 24 µM; in test [2], 49 µM.

Consider `CO[C@@H]1O[C@H](CO)[C@@H](O[C@@H]2O[C@H](CO)[C@H](O)[C@H](O)[C@H]2O)[C@H](O)[C@H]1NC(C)=O` [methyl β-LacNAc], for which, in test [2], the Kd was 67 µM.

As for `CO[C@@H]1O[C@H](CO)[C@@H](O[C@@H]2O[C@H](CO)[C@H](O)[C@H](O)[C@H]2O)[C@H](O)[C@H]1O` [methyl β-lactoside], the Kd in test [1] was 190 µM; in test [2], 220 µM.

On to bovine serum albumin [Nonmodified BSA], for which the “interference with Gal-3 binding to ASF” value in test [3] is “not interfering with Gal-3 binding to ASF”.

For orientation: Kd means the free concentration of one partner at which half of the binding sites on the other are occupied at equilibrium, for simple one-to-one binding.
